# Reference: paper PMC3386930, “Altering APP Proteolysis: Increasing sAPPalpha Production by Targeting Dimerization of the APP Ectodomain” (PLoS ONE, 2012)
# “Also recorded” adds a separate entry of the source.
# Key:
# [1] = target: T1, eAPP230–624 (Homo sapiens, UniProt P05067); experiment: Intrinsic tryptophan fluorescence of eAPP230–624; format: binding; conditions: for quenching constant (Ksv): linear part, equation 1
# T1 construct: made in house
# Method: (§1) The excitation spectra of the intrinsic tryptophan fluorescence were recorded using either a Shimadzu RF-530PC (Shimadzu Scientific Instruments) or a Spectramax XPS spectrophotometer (Molecular Devices).
# Full emission spectra were measured with the Shimadzu RF-530PC using a 3 ml quartz cuvette, a 5 nm slit width and protein concentrations between 0.2–0.6 µM. […] For these larger dilutions, control titrations with the protein alone were used to generate a scaling matrix where the scale factor was both a function of wavelength and dilution. […] A similar scaling matrix was used to correct for the effect of dilution with DMSO. […] All titrations were performed at 24°C. The oligomers were stored on ice during the experiment.
# These concentrations are analogous to concentrations used to create complexes for the small angle x-ray scattering analysis. The incubated material was diluted with PBS so that the final protein concentration was 0.5 µM. The spectra were recorded with the Shimadzu […].
# For experiments with the Spectromax XPS plate reader, an excitation wavelength of 295 nm was used. This excitation wavelength was chosen to minimize both the contribution of tyrosine in the protein and the background fluorescence of the 96-well plates (Costar #3915).
# For the quenching experiments, the data were analyzed by constructing Stern-Volmer plots, F0/F vs. Q, where Fo is the intensity of the fluorescence at zero concentration, F is the intensity of the fluorescence, and Q is the concentration of the quenching agent. When quenching is through either a static (binding) or dynamic (collisional) mechanism this plot is linear and follows the equation: [drawing 1] (1) where Ksv is the quenching constant. When both processes are present the Stern-Volmer plot is quadratic: [drawing 2] (2) where KD is the equilibrium constant associated with dynamic quenching and Ks is the equilibrium constant associated with static quenching. All parameters were determined using PRISM (GraphPad) and the appropriate non-linear curve fitting routine.
# The centroid wavelength (λc) was calculated as: [drawing 3] (3) where I(λi) is the intensity observed for the wavelength (λi). The range of wavelengths was 310–390 nm.
# [2] = target: T1, eAPP230–624; experiment: Difference absorption spectra of eAPP230–624; format: binding
# [3] = system: Aβ oligomers; conditions: cited from earlier work
# [4] = system: 7W-CHO cells; experiment: sAPPα and sAPPβ production in 7W-CHO cells (AlphaLISA); format: cell-based; conditions: for sAPPα production / α-cleavage of APP (in words): 1 µM compound, 24 hours, 50,000 cells per well, vs 0.01% DMSO
# Method: (§2) B103 rat neuroblastoma cells and 7W-CHO cells were seeded at 100,000 or 50,000 cells per well in a 96-well plate and allowed to grow for one day. The B103 rat neuroblastoma cells stably expressing human wild-type APP were a kind gift from Dr. Lennart Mucke (J. David Gladstone Institute of Neurological Disease and University of California, San Francisco). The 7W-CHO cells were a kind gift from Dr. Edward Koo (Department of Molecular Pathology, University of California, San Diego). The cell culture medium was then changed and the cells treated with 1 µM disulfiram, 1 µM sulfiram, or 0.01% DMSO (control). After 24 hours, the amount of sAPPα and sAPPβ produced in the medium was quantified using the AL231C and AL232C AlphaLISA kits from Perkin Elmer, respectively, modified using a custom biotinylated APP antibody.
# A) Effect of treatment with disulfiram and sulfiram on sAPPα and Aβ production in 7W-CHO cells. 7W-CHO cells were seeded at 50,000 cells per well in a 96-well plate and allowed to grow for one day. The cell culture medium was then changed and the cells treated with 1 µM disulfiram, 1 µM sulfiram, or 0.01% DMSO (control). After 24 hours, the amount of sAPPα and sAPPβ produced in the medium was quantified using the AL231C and AL232C AlphaLISA kit from Perkin Elmer, modified using a custom biotinylated human APP antibody. B) Effect on the ratio of α to β cleavage in 7W-CHO cells, as calculated by dividing the amount of sAPPα to sAPPβ produced by the 50,000 7W-CHO cells during one day under the effect of either disulfiram, sulfiram or a DMSO control. C) Effect on the ratio of α to β cleavage in B103 cells. B103 neuroblastoma cells were seeded at 100,000 cells per well in a 96-well plate and allowed to grow for one day. The cell culture medium was then changed and the cells treated with 1 µM disulfiram, 1 µM sulfiram, or 0.01% DMSO (Control). After 24 hours, the amount of sAPPα and sAPPβ produced in the medium was quantified using the same modified AL231C and AL232C AlphaLISA kit from Perkin Elmer. The ratio of α to β cleavage was calculated by dividing the amount of sAPPα to sAPPβ produced by the 100,000 B103 cells during one day under the effect of the disulfiram, sulfiram or DMSO control.
# [5] = system: MBP-eAPP230–624; experiment: Small-angle X-ray scattering (SAXS) of MBP-eAPP230–624 complexes; format: binding; conditions: 50 µM compound, 1:12 molar ratio, PBS plus 2% DMSO
# Method: as §1
# (§3) The samples were incubated on ice for 20 minutes and then concentrated to 50 µl with 10-kDa cutoff concentrators (Millipore). […] Samples of the filtrates were used for buffer subtraction.
# (§4) The samples were then concentrated and purified with a Superdex S200 size-exclusion column with 20 mM Tris pH 7.4, 100 mM sodium chloride and 2 mM EDTA. Samples of the protein buffer from the size-exclusion columns were used for buffer subtraction.
# (§5) Data collection and processing
# (§6) Small-angle X-ray scattering data were collected using protein concentrations in the range of 0.5–3 mg/ml and an X-ray wavelength of 1.11 Å at beam line 12.3.1 (Advanced Light Source). Data were integrated with software customized for the beam line and processed with the program PRIMUS [30]. The program GNOM [31] was used to calculate the maximum dimension and the radius of gyration and to estimate the intensity of the scattering at zero angle for higher concentration samples.
# [6] = system: B103 rat neuroblastoma cells stably expressing human wild-type APP; experiment: sAPPα and sAPPβ production in B103 cells (AlphaLISA); format: cell-based; conditions: 1 µM compound, 24 hours, 100,000 cells per well, vs 0.01% DMSO
# Method: as §2
# A) Effect of treatment with disulfiram and sulfiram on sAPPα and Aβ production in 7W-CHO cells. […] After 24 hours, the amount of sAPPα and sAPPβ produced in the medium was quantified using the AL231C and AL232C AlphaLISA kit from Perkin Elmer, modified using a custom biotinylated human APP antibody. B) Effect on the ratio of α to β cleavage in 7W-CHO cells, as calculated by dividing the amount of sAPPα to sAPPβ produced by the 50,000 7W-CHO cells during one day under the effect of either disulfiram, sulfiram or a DMSO control. […]
# [7] = target: TRX-eAPP_(290–624), thioredoxin fusion protein containing residues 290–624 of APP695 (UniProt P05067); experiment: small-angle X-ray scattering (SAXS); eAPP fragment incubated on ice with Aβ oligomers or Aβ fragments (peptide less than 10 µM), concentrated and purified on Superdex S200 in 20 mM Tris pH 7.4, 100 mM sodium chloride, 2 mM EDTA
# [8] = target: eAPP_(230–624), fragment of the APP ectodomain containing residues 230–624 (UniProt P05067); experiment: as above
# [9] = target: MBP-eAPP_(230–624), maltose binding protein fusion protein containing residues 230–624 (UniProt P05067); experiment: small-angle X-ray scattering (SAXS); 150 µl MBP-eAPP230-624 (≈0.5 mg/ml) diluted with 400 µl of peptide solution, 20 minutes on ice, concentrated to 50 µl with 10-kDa cutoff concentrators
# [10] = Size-exclusion chromatography of Aβ fragments; format: physicochemical; conditions: Superdex 75 column, PBS, indicates smaller dimers or monomers
# Source text: The arrow indicates the direction of shift of the fluorescence peak. […] The black line indicates the starting concentration and the blue line indicates the final concentration. The arrow indicates the direction of shift of the fluorescence peak.
# [11] = target: T1, eAPP230–624; experiment: Small-angle X-ray scattering (SAXS) of eAPP230–624 complexes; format: binding; conditions: for MWcalc/MWseq: SAXS relative mass, MWseq 45-kDa for eAPP230–624, max. error ±0.2, monomer around 1.3, protein alone 2.0; for Dmax / Rg: SAXS, GNOM, eAPP230–624 with peptide; for Dmax: maximum dimension, max. estimated error ±10 Å; for Rg: radius of gyration, max. estimated error ±2 Å
# Method: as §3, §4, §5, §6
# [12] = system: neuronal cells; conditions: similar activity; reference not printed with this sentence, 42 for APP319–335; cited from earlier work
# Source text: A 17-amino acid peptide (APP319–335) that contains the RERMS sequence is an example of such a compound. […] The mechanism by which the RERMS peptide enhances the producti ...
# [13] = system: APP; conditions: cited from earlier work
# Source text: These changes in conformation may be important in setting the balance between α-cleavage and β-cleavage of APP because the relative rates of these cleavages are known to be affected by interactions between APP and a number of proteins, both at the cell surface and during recycling of APP [19], [20]. Altering the balance of these two cleavages to favor α-cleavage is of potential therapeutic benefit for Alzheimer's disease since it would reduce Aβ production and enhance sAPPα production, without inhibition of the beta and gamma secretases. A precedent exists for this effect in that an increa ...
# [14] = 0.64 µM eAPP230–624, RERMS 0–270 µM
compound,measurement,setting,value
"O=S(=O)(O)c1cccc2cccc(Nc3ccccc3)c12 [1,8-ANS, 1-anilinonaphthalene-8-sulfonic acid]",fluorescence intensity drop,"[1]; 1,8-ANS below 50 µM (1:14 protein to 1,8-ANS molar ratio)",more than 50%
same,quenching of fluorescence at high concentration,"[1]; 1,8-ANS greater than 150 µM",quench nearly all the fluorescence
same,quenching of intrinsic fluorescence (FRET),"[1]; 1:20 protein to 1,8-ANS molar ratio, excitation wavelengths greater than 285 nm",efficiently quenched the intrinsic fluorescence
same,quenching constant (Ksv),"[1]; 345 nm, Shimadzu RF-530PC, 0.64 µM eAPP230–624, 24°C",9.3 ± 0.1 mM⁻¹
same,quenching constant (Ksv),"[1]; 375 nm, Shimadzu RF-530PC, 0.64 µM eAPP230–624, 24°C",10.9 ± 0.2 mM⁻¹
same,quenching constant (Ksv),"[1]; 375 nm, Spectramax XPS plate reader",9.6 ± 0.3 mM⁻¹
same,effect on absorption of eAPP230–624,"[2]; one-to-ten molar ratio protein to 1,8-ANS, 3 µM eAPP230–624",significant effect on the absorption
same,binding to Aβ oligomers and Aβ aggregation,[3],bind to Aβ oligomers and prevent Aβ aggregation
CCN(CC)C(=S)SC(=S)N(CC)CC [Sulfiram],quenching of intrinsic fluorescence (in words),"[1]; 0.64 µM eAPP230–624, disulfiram 0–130 µM, sulfiram 0–320 µM, Shimadzu RF-530PC",significantly quenched the intrinsic fluorescence
same,effect on dimerization of the ectodomain fragment (in words),"[1]; intrinsic fluorescence, confirmed with SAXS",inhibit dimerization of the ectodomain fragment
same,sAPPα production / α-cleavage of APP (in words),[4],increase sAPPα production
same,sAPPα production / α-cleavage of APP (in words),[4]; listed as sulfiram,significantly enhance the production of sAPPα; also recorded: enhance α-cleavage significantly
same,relative ability to enhance sAPPα production in cells (in words),"[4]; sulfiram vs disulfiram, cell line not stated at place",reduced ability to enhance sAPPα production in cells
same,effect on monomer-dimer equilibrium / dimerization of MBP-eAPP230–624 (in words),[5],significantly affected the monomer-dimer equilibrium of MBP-eAPP230–624 in favor of the monomer; also recorded: shift the monomer-dimer equilibrium in favor of the monomer
same,change in extinction coefficient,"[2]; 1:6 molar ratio, 8.3 µM eAPP230–624, 50 µM compound, PBS plus 2% DMSO",significant drop in the extinction coefficient
same,sAPPα production / α-cleavage of APP (in words),[6],significantly enhance the production of sAPPα; also recorded: enhance α-cleavage significantly
Aβ1-28 (peptide),MWcalc/MWseq (apparent mass of the sample over the sequence mass of the eAPP fragment),[7],1.5
same,MWcalc/MWseq (apparent mass of the sample over the sequence mass of the eAPP fragment),[8],0.9
same,MWcalc/MWseq (apparent mass of the sample over the sequence mass of the eAPP fragment),[9],1.2
Aβ1-28: Aβ fragment,inhibition of eAPP dimerization (in words),[1]; legend of titration of 0.64 µM eAPP230–624 with 0–60 µM fragment,inhibit eAPP dimerization
same,pattern of changes in the intrinsic fluorescence (in words),"[1]; titration of 0.64 µM eAPP230–624, 345 nm",acted like Aβ1-40 dimers in terms of the changes in the intrinsic fluorescence
same,elution later than the 7-kDa peak,[10],0.5 mls
same,MWcalc/MWseq,[11],0.9
same,Dmax,[11],170 Å
same,Rg,[11],46 Å
RERMS [The RERMS peptide itself (APP 328–332)],fold reduced potency vs APP319–335,[12],10 -fold
same,red-shift in the centroid wavelength,[1]; [14],1 nm
same,red-shift in the peak position,[1]; [14],approximately 2 nm
same,effect on intensity of intrinsic fluorescence (in words),"[1]; 0.64 µM eAPP230–624, RERMS 0–270 µM (1:0–1:420)",quenches the intensity of the intrinsic fluorescence
same,SAXS form of eAPP230–624 complex (in words),[11]; SAXS of complex,dimer with a significantly smaller maximum dimension and radius of gyration than the native dimer
same,MWcalc/MWseq,[11],1.8
same,Dmax,[11],130 Å
same,Rg,[11],39 Å
sAPPα: product of α-cleavage of APP; contains almost the entire ectodomain,inhibition of APP dimerization and cell survival (in words),[13],inhibit APP dimerization and increase cell survival
